Laboratory results as given in US20240150322A1, “CDK9 Inhibitors” (Biolexis Therapeutics, Inc., priority 2022, published 2024).
Read-outs that look alike come from different tables or passages of the source.

What was measured:
NCI-H660 = experiment: 2D CellTiter-Glo cell viability assay; format: cell-based; settings: NCI-H660, 72 hours
Experimental: (§1) CellTiter-Glo® 2.0 Luminescent cell viability assay reagent was purchased from Promega and 22Rv1 and LASCPC-01 cell lines were purchased from ATCC. […] An equal volume of CellTiter-Glo 2D Reagent was added to the cell suspensions and luminescence was recorded after 30-minute incubation period. […] FIG. 2 illustrates cellular antiproliferative efficacy of a benchmark CDK9 inhibitor AD-4573 on six prostate cancer cell lines over various concentrations.
(§2) CellTiter-Glo® 2.0 Luminescent cell viability assay reagent was purchased from Promega and 22Rv1, LASCPC-01, C4-2, C4-2B and NCI-H660, DU-145, PC-3 and LNCap cell lines were obtained from ATCC and a clinical core facility at Huntsman Cancer Institute. […] The results of cell viability were obtained and IC50 values were calculated (see Table 5, below) showing sub-micromolar cell killing of these prostate cancer cells.

LASCPC-01 [1] = experiment: 2D CellTiter-Glo cell viability assay; format: cell-based; settings: LASCPC-01, 72 hours
Experimental: as §1, §2

LNCap = experiment: 2D CellTiter-Glo cell viability assay; format: cell-based; settings: Homo sapiens, 72 hours
Experimental: as §1, §2

DU-145 = experiment: 2D CellTiter-Glo cell viability assay; format: cell-based; settings: Homo sapiens; DU-145, 72 hours
Experimental: as §1, §2

22Rv1 [2] = experiment: 2D CellTiter-Glo cell viability assay; format: cell-based; settings: Homo sapiens; 22Rv1, 72 hours
Experimental: as §1, §2

LASCPC-01 [3] = experiment: Annexin V/7-AAD apoptosis assay; format: cell-based
[4] = Pharmacokinetic study in rat; settings: in vivo, po
hERG channel = target: T1, hERG channel (Homo sapiens, UniProt Q12809); experiment: Predictor hERG Fluorescence Polarization Assay; format: binding
T1 construct: purchased
Source text: The Predictor™ hERG Fluorescence Polarization Assay Kit was used to perform hERG channel biochemical binding studies in the absence of radioligand. Assay performance was validated with a panel of established hERG channel blockers.

22Rv1 [5] = experiment: Annexin V/7-AAD apoptosis assay; format: cell-based
TAOK3 = TAOK3 (Homo sapiens, UniProt Q9H2K8); experiment: scanMAX panel and Kd follow-up; format: binding
Haspin = Haspin (Homo sapiens, UniProt Q8TF76); experiment: scanMAX panel and Kd follow-up; format: binding
TAOK1 = TAOK1 (Homo sapiens, UniProt Q7L7X3); experiment: scanMAX panel and Kd follow-up; format: binding
human P450 isozyme 3A4 = target: T2, human P450 isozyme 3A4 (Homo sapiens, UniProt P08684); experiment: P450 isozyme inhibition assay (baculosomes); format: in vitro ADME; settings: P450 3A4
T2 construct: made in house; host or cells: insect cells infected with recombinant baculovirus
Experimental: (§3) P450 baculosome reagents (i.e., microsomes), were prepared from insect cells infected with recombinant baculovirus containing a human P450 isozyme and a rabbit NAPDH-P450 reductase since only a single P450 isozyme is expressed over human liver microsomes (HLM).

human P450 isozyme 2C19 = target: T3, human P450 isozyme 2C19 (Homo sapiens, UniProt P33261); experiment: P450 isozyme inhibition assay (baculosomes); format: in vitro ADME; settings: P450 2C19
T3 construct: host or cells: insect cells infected with recombinant baculovirus
Experimental: as §3

human P450 isozyme 2D6 = target: T4, human P450 isozyme 2D6 (Homo sapiens, UniProt P10635); experiment: P450 isozyme inhibition assay (baculosomes); format: in vitro ADME; settings: P450 2D6
T4 construct: made in house; host or cells: insect cells infected with recombinant baculovirus
Experimental: as §3

human P450 isozyme 1A2 = target: T5, human P450 isozyme 1A2 (Homo sapiens, UniProt P05177); experiment: P450 isozyme inhibition assay (baculosomes); format: in vitro ADME; settings: P450 1A2
T5 construct: host or cells: insect cells infected with recombinant baculovirus
Experimental: as §3

human P450 isozyme 2C9 = target: T6, human P450 isozyme 2C9 (Homo sapiens, UniProt P11712); experiment: P450 isozyme inhibition assay (baculosomes); format: in vitro ADME; settings: P450 2C9
T6 construct: host or cells: insect cells infected with recombinant baculovirus
Experimental: as §3

CDK9 = CDK9 (Homo sapiens, UniProt P50750); experiment: DiscoveRx KINOMEscan (KdELECT, scanMAX panel); format: binding
Experimental: CDKs family kinases profiling assays were performed with DiscoveRx Matrix of Kds KINOMEscan (KdELECT) and Reaction Biology using miniaturized radioisotope-based assay platform (^33P). IC50 value estimated based on the best curve fitting available.

[6] = Pharmacokinetic study in mice; settings: mouse, in vivo, po
[7] = Pharmacokinetic study in male Beagle dogs; format: in vivo; settings: dog, plasma; for Tmax: read-out: Tmax (hours), median (min-max); for Vd: male, Beagle, iv, 1 mg/kg
Experimental: Last time of mean concentrations was 24 hours following intravenous bolus injection.

CDK9/CycT1 = target: T7, CDK9/CycT1 (Homo sapiens, UniProt P50750); experiment: ADP-Glo kinase assay; format: biochemical
T7 construct: purchased SignalChem
Experimental: ADP-Glo assay kit was purchased from Promega and the CDK9/CycT1 protein and PDKtide substrate were purchased from SignalChem. […] The reaction was started by pre-incubating 4 μL of protein (20 nM), 2 μL of substrate (100 μM), and 2 μL of serial diluted drug in 1× assay buffer (50 mM HEPES, 3 mM MgCl2, 3 mM MnCl2, and 1 mM DTT) for 30 minutes. After pre-incubating, 4 μL of ATP (1 μM) was added to each well and incubated for an additional 90 minutes. The ADP-Glo Reagent (10 μL) and Kinase Detection Reagent (20 μL) were added to each well and incubated as recommended by Promega. The reaction was quantified by measuring luminescence and the IC50 was calculated using GraphPad Prism software.

PRKD3 = PRKD3 (Homo sapiens, UniProt O94806); experiment: scanMAX panel and Kd follow-up; format: binding
Chain of PRKD3 (O94806 whole entry): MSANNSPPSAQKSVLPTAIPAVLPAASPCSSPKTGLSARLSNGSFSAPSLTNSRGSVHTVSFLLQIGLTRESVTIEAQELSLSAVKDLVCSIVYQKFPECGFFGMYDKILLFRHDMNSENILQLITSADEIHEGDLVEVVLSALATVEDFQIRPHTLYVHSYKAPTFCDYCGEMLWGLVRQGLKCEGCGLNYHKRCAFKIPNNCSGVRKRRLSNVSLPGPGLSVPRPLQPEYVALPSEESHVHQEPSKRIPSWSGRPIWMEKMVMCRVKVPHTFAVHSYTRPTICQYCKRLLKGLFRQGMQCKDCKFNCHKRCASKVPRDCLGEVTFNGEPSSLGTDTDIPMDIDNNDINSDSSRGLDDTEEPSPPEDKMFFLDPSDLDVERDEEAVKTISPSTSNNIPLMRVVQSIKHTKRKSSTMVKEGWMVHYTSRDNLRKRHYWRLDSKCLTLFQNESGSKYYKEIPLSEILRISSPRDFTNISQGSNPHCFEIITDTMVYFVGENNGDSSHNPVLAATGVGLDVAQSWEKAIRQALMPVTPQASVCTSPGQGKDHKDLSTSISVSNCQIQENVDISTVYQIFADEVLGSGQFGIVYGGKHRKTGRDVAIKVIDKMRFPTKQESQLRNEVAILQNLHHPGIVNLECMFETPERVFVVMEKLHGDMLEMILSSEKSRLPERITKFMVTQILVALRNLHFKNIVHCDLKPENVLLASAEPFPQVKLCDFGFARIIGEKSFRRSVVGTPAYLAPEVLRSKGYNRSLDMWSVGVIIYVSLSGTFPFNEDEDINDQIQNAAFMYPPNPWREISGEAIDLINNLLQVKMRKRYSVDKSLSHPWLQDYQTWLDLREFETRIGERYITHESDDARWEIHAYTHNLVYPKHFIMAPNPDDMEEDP

Chain of TAOK3 (Q9H2K8 whole entry): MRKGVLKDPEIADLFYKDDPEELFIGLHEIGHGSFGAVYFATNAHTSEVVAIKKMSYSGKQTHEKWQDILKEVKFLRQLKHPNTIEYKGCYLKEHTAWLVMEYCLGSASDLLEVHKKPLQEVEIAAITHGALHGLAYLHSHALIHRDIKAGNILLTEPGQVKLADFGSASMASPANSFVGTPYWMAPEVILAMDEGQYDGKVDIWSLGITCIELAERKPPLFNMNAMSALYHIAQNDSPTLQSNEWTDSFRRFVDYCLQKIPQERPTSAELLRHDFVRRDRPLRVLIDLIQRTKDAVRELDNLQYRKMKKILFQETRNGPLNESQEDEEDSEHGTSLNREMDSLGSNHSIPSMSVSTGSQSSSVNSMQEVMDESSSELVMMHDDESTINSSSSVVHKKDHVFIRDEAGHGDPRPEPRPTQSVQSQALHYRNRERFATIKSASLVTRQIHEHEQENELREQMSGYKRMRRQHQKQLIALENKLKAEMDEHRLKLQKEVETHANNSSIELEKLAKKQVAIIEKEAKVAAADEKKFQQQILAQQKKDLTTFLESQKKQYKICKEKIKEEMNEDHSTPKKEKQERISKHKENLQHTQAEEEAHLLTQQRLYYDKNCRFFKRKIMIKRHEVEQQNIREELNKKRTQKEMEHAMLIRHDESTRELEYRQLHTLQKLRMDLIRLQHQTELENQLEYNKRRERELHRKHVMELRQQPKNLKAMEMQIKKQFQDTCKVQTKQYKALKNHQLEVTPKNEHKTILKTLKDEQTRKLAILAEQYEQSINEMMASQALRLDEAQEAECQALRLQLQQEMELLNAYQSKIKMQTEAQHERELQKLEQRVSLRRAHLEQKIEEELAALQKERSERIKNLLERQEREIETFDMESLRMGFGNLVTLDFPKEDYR
T1 sequence (Q12809 whole entry): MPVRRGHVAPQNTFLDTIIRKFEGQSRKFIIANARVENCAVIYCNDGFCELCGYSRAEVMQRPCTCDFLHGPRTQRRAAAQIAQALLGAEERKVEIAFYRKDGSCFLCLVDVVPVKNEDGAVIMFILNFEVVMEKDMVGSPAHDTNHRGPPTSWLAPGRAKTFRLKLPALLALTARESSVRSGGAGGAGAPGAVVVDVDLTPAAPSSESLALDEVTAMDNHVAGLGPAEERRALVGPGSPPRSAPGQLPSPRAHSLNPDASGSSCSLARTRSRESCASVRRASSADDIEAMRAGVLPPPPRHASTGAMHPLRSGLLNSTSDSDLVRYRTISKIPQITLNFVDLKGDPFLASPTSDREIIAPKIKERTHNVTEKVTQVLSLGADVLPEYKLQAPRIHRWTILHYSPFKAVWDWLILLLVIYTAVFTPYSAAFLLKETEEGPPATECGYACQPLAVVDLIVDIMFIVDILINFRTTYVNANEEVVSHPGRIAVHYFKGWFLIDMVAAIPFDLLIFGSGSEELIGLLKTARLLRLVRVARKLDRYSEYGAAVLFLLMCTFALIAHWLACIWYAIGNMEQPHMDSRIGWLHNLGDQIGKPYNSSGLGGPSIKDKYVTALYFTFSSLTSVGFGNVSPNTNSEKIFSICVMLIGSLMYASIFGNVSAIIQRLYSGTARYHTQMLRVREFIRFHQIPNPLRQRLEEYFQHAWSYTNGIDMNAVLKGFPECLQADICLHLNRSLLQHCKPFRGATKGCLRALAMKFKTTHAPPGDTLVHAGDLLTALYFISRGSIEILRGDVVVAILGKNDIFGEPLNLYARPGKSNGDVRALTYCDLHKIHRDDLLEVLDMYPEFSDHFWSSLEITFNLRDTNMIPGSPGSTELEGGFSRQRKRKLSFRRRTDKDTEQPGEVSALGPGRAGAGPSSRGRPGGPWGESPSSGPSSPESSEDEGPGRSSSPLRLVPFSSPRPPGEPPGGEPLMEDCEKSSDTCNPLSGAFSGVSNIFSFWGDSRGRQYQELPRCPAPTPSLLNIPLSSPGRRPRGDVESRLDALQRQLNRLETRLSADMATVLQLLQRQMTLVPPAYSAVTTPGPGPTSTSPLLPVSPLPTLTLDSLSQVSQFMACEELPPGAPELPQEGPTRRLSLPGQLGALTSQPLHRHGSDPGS
Chain of CDK9 (P50750 whole entry): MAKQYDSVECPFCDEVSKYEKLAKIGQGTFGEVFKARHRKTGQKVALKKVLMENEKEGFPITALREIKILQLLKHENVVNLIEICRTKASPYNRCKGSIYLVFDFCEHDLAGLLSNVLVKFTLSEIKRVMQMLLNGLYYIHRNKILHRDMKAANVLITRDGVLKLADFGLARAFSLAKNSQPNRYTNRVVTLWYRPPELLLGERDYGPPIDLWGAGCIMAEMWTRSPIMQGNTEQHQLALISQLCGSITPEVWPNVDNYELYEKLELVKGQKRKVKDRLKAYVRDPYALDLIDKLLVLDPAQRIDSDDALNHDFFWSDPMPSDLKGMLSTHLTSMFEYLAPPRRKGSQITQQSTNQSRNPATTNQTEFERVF
Chain of TAOK1 (Q7L7X3 whole entry): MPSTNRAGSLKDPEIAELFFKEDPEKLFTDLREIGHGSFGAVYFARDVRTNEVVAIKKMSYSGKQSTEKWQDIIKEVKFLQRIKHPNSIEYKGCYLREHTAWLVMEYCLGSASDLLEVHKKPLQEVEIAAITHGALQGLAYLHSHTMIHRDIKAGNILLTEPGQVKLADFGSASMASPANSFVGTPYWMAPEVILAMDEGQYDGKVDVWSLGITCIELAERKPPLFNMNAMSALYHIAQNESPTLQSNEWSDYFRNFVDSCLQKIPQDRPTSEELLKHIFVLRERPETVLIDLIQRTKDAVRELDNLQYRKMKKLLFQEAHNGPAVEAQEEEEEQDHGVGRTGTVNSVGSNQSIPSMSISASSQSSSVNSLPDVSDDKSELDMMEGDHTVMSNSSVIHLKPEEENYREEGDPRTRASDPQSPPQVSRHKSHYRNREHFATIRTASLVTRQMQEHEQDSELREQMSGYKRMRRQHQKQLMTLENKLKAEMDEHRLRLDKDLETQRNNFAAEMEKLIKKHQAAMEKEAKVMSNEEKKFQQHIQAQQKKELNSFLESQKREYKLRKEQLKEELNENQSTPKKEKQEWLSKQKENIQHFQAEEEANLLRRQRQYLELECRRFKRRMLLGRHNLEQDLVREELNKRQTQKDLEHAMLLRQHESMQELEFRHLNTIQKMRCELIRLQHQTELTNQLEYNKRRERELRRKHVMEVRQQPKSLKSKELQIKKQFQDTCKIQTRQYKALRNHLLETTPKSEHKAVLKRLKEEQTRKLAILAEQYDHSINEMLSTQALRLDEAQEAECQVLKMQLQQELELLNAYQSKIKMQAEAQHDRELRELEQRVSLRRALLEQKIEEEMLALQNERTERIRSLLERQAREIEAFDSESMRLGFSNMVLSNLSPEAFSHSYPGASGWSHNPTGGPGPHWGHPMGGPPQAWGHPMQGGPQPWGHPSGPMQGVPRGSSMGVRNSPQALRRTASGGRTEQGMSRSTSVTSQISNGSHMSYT
T4 sequence (P10635 whole entry): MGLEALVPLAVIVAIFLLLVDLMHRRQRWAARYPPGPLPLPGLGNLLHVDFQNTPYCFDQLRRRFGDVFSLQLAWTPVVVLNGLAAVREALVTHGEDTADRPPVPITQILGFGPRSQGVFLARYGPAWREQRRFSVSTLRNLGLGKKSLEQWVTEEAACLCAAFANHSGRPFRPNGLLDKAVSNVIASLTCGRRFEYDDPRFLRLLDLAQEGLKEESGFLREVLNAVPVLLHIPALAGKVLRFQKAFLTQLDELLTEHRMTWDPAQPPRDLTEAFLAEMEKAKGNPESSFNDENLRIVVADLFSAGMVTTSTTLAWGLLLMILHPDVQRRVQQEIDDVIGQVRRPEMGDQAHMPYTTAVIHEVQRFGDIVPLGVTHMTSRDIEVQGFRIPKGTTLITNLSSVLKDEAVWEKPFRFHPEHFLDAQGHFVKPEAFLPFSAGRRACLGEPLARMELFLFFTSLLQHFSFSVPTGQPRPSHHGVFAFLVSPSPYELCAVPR

CC(C)c1c2cc(-c3ccnc(N[C@H]4CC[C@H](N)C4)n3)ccc2nn1C [Compound I-2, (1S,3S)-[3-[4-(3-isopropyl-2-methylindazol-5-yl)pyrimidin-2-yl]aminocyclopentan-1-yl]-1,3-diamine]
IC50 (NCI-H660): 448 nM | IC50 (LASCPC-01 [1]; 72 h): 58 nM | IC50 (LASCPC-01 [1]): 58 nM | IC50 (LNCap): 80.4 nM | IC50 (DU-145): 7720 nM | IC50 (22Rv1 [2]): 132 nM | apoptosis by Annexin V/7-AAD staining (LASCPC-01 [3]; LASCPC-01): increased apoptosis in a dose dependent manner | cell death (LASCPC-01 [3]; LASCPC-01, treated for 72 hours): 69% | bioavailability [4]: 38% | hERG activity (hERG channel): no hERG activity | IC50 (hERG channel; fluorescence polarization): 57800 nM | apoptosis by Annexin V/7-AAD staining (22Rv1 [5]; 22Rv1): increased apoptosis in a dose dependent manner | cell death (22Rv1 [5]; 22Rv1, treated for 72 hours): 71% | Kd (TAOK3; TAOK3): 9.2 nM | remaining binding at 1 µM (TAOK3; TAOK3, 1 μM, read-out: % of control activity): 0 to 1% | Kd (Haspin): 2.8 nM | remaining binding at 1 µM (Haspin; 1 μM, read-out: % of control activity): 0 to 1% | Kd (TAOK1; TAOK1): 19 nM | remaining binding at 1 µM (TAOK1; TAOK1, 1 μM, read-out: % of control activity): 0 to 1% | IC50 (human P450 isozyme 3A4): 31100 nM | IC50 (human P450 isozyme 2C19): 28300 nM | IC50 (human P450 isozyme 2D6): 100000 nM | IC50 (human P450 isozyme 1A2): 29400 nM | IC50 (human P450 isozyme 2C9): 50800 nM | activity in scanMAX panel (CDK9; CDK9, 1 μM): 2.7% | Kd (CDK9; CDK9/cyclinT): 4.2 nM | bioavailability [6]: 28% | half-life ([7]; IV 1 mg/kg): 4.26 h | half-life ([7]; oral 3 mg/kg): 5.81 h | AUC ([7]; IV 1 mg/kg): 529 ± 200 ng·h/mL | AUC(0-inf) ([7]; IV 1 mg/kg): 566 ± 191 ng·h/mL | MRT ([7]; IV 1 mg/kg): 3.82 ± 1.25 h | clearance ([7]; IV 1 mg/kg): 31.8 ± 10.7 mL/min/kg | C0 ([7]; IV 1 mg/kg, extrapolated concentration at time zero): 312 ± 98.3 ng/mL | Tmax ([7]; IV 1 mg/kg): 0.08 h | AUC ([7]; oral 3 mg/kg): 1300 ± 233 ng·h/mL | AUC(0-inf) ([7]; oral 3 mg/kg): 1340 ± 242 ng·h/mL | Cmax ([7]; oral 3 mg/kg): 373 ± 238 ng/mL | MRT ([7]; oral 3 mg/kg): 4.92 ± 0.97 h | bioavailability ([7]; oral 3 mg/kg vs IV 1 mg/kg, from nominal doses and AUCinf, read-out: % F (oral bioavailability)): 83 ± 22% | Tmax ([7]; oral 3 mg/kg): 1 h | Vd ([7]; IV 1 mg/kg, read-out: Vd): 11.3 ± 2.93 L/kg | Vd ([7]; IV 1 mg/kg, read-out: Vss): 9.35 ± 2.74 L/kg | IC50 (CDK9/CycT1): < 50 nM | Kd (PRKD3; PRKD3): 230 nM | remaining binding at 1 µM (PRKD3; PRKD3, 1 μM, read-out: % of control activity): 0 to 1%
